{"source": "patent US12071425B2", "about": "(Genentech, Inc., priority 2018, dated 2024)", "note": "Structures can show the parent of a compound that is named as a salt."}
{"target": "kinase domain of IRE1 alpha (His-tagged kinase dead construct KR, AA G547-L977, D688N) (Homo sapiens (Human), UniProt O75460, D688N)", "sequence (O75460 547-977 D688N)": "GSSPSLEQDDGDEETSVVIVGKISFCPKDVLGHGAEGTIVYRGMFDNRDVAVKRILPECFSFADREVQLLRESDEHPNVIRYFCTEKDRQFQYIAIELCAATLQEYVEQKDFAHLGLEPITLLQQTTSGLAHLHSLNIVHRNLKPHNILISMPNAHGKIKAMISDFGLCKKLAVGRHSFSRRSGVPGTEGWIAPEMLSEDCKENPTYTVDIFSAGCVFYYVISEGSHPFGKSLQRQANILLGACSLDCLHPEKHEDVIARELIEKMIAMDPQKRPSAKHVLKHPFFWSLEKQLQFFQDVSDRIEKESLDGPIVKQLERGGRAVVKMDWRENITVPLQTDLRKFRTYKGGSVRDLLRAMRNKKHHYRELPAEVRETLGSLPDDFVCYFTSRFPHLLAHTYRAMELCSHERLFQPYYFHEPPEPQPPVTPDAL", "assay": "IRE1α TR-FRET competition binding assay", "details": "competition with Kinase Tracer 236, 0.1 μM; one hour at room temperature", "procedure": "To determine the affinity of compound binding to the kinase domain of IRE1 alpha, a Time Resolved Fluorescence Resonance Energy Transfer (TR-FRET) competition assay was used. A His-tagged IRE1 alpha kinase dead construct containing the kinase and RNase domains (KR, AA G547-L977, D688N) was expressed in Sf9 insect cells. The purified protein (final concentration 0.006 μM micromolar) was pre-incubated with anti-His Europium labeled antibody (Life Technologies PV5596, final concentration 0.002 μM micromolar) for one hour at 4° C. in 1X TR-FRET Assay Buffer (50 mM HEPES, pH 7.5.10 mM MgCl2, 0.083 mM Brij 35, 1 mM DTT, and 0.1% bovine gamma globulin) prior to addition to test compounds. A fluorescent labeled probe based on an ATP competitive inhibitor (Kinase Tracer 236, Life Technologies PV5592) is added to a final concentration of 0.1 μM (micromolar). Reactions were carried out for one hour at room temperature in a final volume of 20 μL (microliter) in 384 well white ProxiPlates (Perkin Elmer 6008289). Binding of the tracer to the IRE1 protein alpha was detected in an Envision instrument (PerkinElmer) equipped with a TRF laser option and a LANCE/Delfia Dual/Bias D400/D630 mirror (Ex 347 nm, 1st Em 665 nm, 2nd Em 615 nm).\nExemplary compounds in Table A1 were tested in the IRE1α binding assays.", "units": {"IC50": "nM"}}
{"smiles": "CN(C)[C@H]1CC[C@H](Nc2nccc(-c3cccnc3Oc3cc(F)c(NS(=O)(=O)Cc4ccccc4)c(F)c3F)n2)CC1", "note": "[Compound 272, N-(4-((3-(2-(((1r,4r)-4-(Dimethylamino)cyclohexyl)amino)pyrimidin-4-yl)pyridin-2-yl)oxy)-2,3,6-trifluorophenyl)-1-phenylmethanesulfonamide hydrochloride]", "IC50": 0.15}
{"smiles": "O=C1CC[C@H](Nc2nccc(-c3cccnc3Oc3ccc(NS(=O)(=O)Cc4ccccc4)c(F)c3F)n2)CN1", "note": "[Compound 181, (S)-N-(2,3-difluoro-4-((3-(2-((6-oxopiperidin-3-yl)amino)pyrimidin-4-yl)pyridin-2-yl)oxy)phenyl)-1-phenylmethanesulfonamide]", "IC50": 36}
{"smiles": "O=S(=O)(Nc1ccc(Oc2ncccc2-c2ccnc(N[C@H]3CCCNC3)n2)c(F)c1F)c1ccccc1", "note": "[Compound 218, (S)-N-(2,3-difluoro-4-((3-(2-(piperidin-3-ylamino)pyrimidin-4-yl)pyridin-2-yl)oxy)phenyl)benzenesulfonamide]", "IC50": 16}
{"smiles": "COc1ccccc1S(=O)(=O)Nc1ccc(Oc2ncccc2-c2ccnc(N[C@H]3CCCNC3)n2)c(F)c1F", "note": "[Compound 224, (S)-N-(2,3-difluoro-4-((3-(2-(piperidin-3-ylamino)pyrimidin-4-yl)pyridin-2-yl)oxy)phenyl)-2-methoxybenzenesulfonamide]", "IC50": 40}
{"smiles": "Cc1c(NS(=O)(=O)c2ccccc2Cl)ccc(Oc2ncccc2-c2ccnc(N[C@H]3CCCNC3)n2)c1C", "note": "[Compound 123, (S)-2-Chloro-N-(2,3-dimethyl-4-((3-(2-(piperidin-3-ylamino)pyrimidin-4-yl)pyridin-2-yl)oxy)phenyl)benzenesulfonamide]", "IC50": 50}
{"smiles": "Cc1c(Oc2ncccc2-c2ccnc(N[C@H]3CCCNC3)n2)cc(F)c(NS(=O)(=O)Cc2ccccc2)c1C", "note": "[Compound 175, (S)-N-(6-fluoro-2,3-dimethyl-4-((3-(2-(piperidin-3-ylamino)pyrimidin-4-yl)pyridin-2-yl)oxy)phenyl)-1-phenylmethanesulfonamide]", "IC50": 5.2}
{"smiles": "COc1cc(Oc2ncccc2-c2ccnc(N[C@@H]3CNC[C@@H](F)C3)n2)cc(F)c1NS(=O)(=O)Cc1ccccc1", "note": "[Compound 296, N-(2-Fluoro-4-((3-(2-(((3S,5S)-5-fluoropiperidin-3-yl)amino)pyrimidin-4-yl)pyridin-2-yl)oxy)-6-methoxyphenyl)-1-phenylmethanesulfonamide]", "IC50": 14}
{"smiles": "COc1cccc(S(=O)(=O)Nc2ccc(Oc3ncccc3-c3ccnc(N[C@H]4CCCNC4)n3)c(F)c2F)c1", "note": "[Compound 212, (S)-N-(2,3-difluoro-4-((3-(2-(piperidin-3-ylamino)pyrimidin-4-yl)pyridin-2-yl)oxy)phenyl)-3-methoxybenzenesulfonamide]", "IC50": 25}
{"smiles": "Cc1c(Oc2ncccc2-c2ccnc(N[C@@H]3CNC[C@@H](F)C3)n2)cc(F)c(NS(=O)(=O)Cc2c(F)cccc2F)c1F", "note": "[Compound 293, N-(2,6-Difluoro-4-((3-(2-(((3S,5S)-5-fluoropiperidin-3-yl)amino)pyrimidin-4-yl)pyridin-2-yl)oxy)-3-methylphenyl)-1-(2,6-difluorophenyl)methanesulfonamide]", "IC50": 0.41}
{"smiles": "COCCS(=O)(=O)Nc1c(F)cc(Oc2ncccc2-c2ccnc(N[C@@H]3CNC[C@@H](F)C3)n2)c(F)c1F", "note": "[Compound 252, 2-Methoxy-N-(2,3,6-trifluoro-4-((3-(2-(((3S,5S)-5-fluoropiperidin-3-yl)amino)pyrimidin-4-yl)pyridin-2-yl)oxy)phenyl)ethane-1-sulfonamide]", "IC50": 14}
{"smiles": "CC(C)(C#N)CCS(=O)(=O)Nc1ccc(Oc2ncccc2-c2ccnc(N[C@H]3CCCNC3)n2)c(F)c1F", "note": "[Compound 210, (S)-3-cyano-N-(2,3-difluoro-4-((3-(2-(piperidin-3-ylamino)pyrimidin-4-yl)pyridin-2-yl)oxy)phenyl)-3-methylbutane-1-sulfonamide]", "IC50": 23}
{"smiles": "C[C@@H](c1ccccc1)S(=O)(=O)Nc1c(F)cc(Oc2ncccc2-c2ccnc(N[C@@H]3CNC[C@@H](F)C3)n2)c(F)c1F", "note": "(single isomer, unassigned) [Compound 387, (*S)-1-Phenyl-N-(2,3,6-trifluoro-4-((3-(2-(((3S,5S)-5-fluoropiperidin-3-yl)amino)pyrimidin-4-yl)pyridin-2-yl)oxy)phenyl)ethane-1-sulfonamide]", "IC50": 0.2}
{"smiles": "O=S(=O)(Cc1ccccc1)Nc1ccc(Oc2ncccc2-c2ccnc(NC3CCNCC3)n2)c(F)c1F", "note": "[Compound 180, N-(2,3-difluoro-4-((3-(2-(4-piperidylamino)pyrimidin-4-yl)-2-pyridyl)oxy)phenyl)-1-phenyl-methanesulfonamide]", "IC50": 38}
{"smiles": "O=S(=O)(Cc1ccccc1)Nc1c(F)cc(Oc2ncccc2-c2ccnc(NC3CC4CCCN(C4)C3)n2)c(F)c1F", "note": "(single isomer, unassigned) [Compound 287, N-(4-((3-(2-((1-azabicyclo[3.3.1]nonan-3-yl)amino)pyrimidin-4-yl)pyridin-2-yl)oxy)-2,3,6-trifluorophenyl)-1-phenylmethanesulfonamide hydrochloride]", "IC50": 1.5}
{"smiles": "C[C@H](c1ccccc1)S(=O)(=O)Nc1c(F)cc(Oc2ncccc2-c2ccnc(N[C@@H]3CNC[C@@H](F)C3)n2)c(F)c1F", "note": "(single isomer, unassigned) [Compound 388, (*R)-1-phenyl-N-(2,3,6-trifluoro-4-((3-(2-(((3S,5S)-5-fluoropiperidin-3-yl)amino)pyrimidin-4-yl)pyridin-2-yl)oxy)phenyl)ethane-1-sulfonamide]", "IC50": 0.8}
{"smiles": "Cc1ccccc1CS(=O)(=O)Nc1c(F)cc(Oc2ncccc2-c2ccnc(N[C@@H]3CNC[C@@](C)(F)C3)n2)c(F)c1F", "note": "[Compound 290, 1-o-Tolyl-N-(2,3,6-trifluoro-4-((3-(2-(((3S,5S)-5-fluoro-5-methylpiperidin-3-yl)amino)pyrimidin-4-yl)pyridin-2-yl)oxy)phenyl)methanesulfonamide]", "IC50": 0.4}
{"smiles": "Cn1cnc(S(=O)(=O)Nc2ccc(Oc3ncccc3-c3ccnc(N[C@H]4CCCNC4)n3)c(F)c2F)c1", "note": "[Compound 221, (S)-N-(2,3-difluoro-4-((3-(2-(piperidin-3-ylamino)pyrimidin-4-yl)pyridin-2-yl)oxy)phenyl)-1-methyl-1H-imidazole-4-sulfonamide]", "IC50": 380}
{"smiles": "O=S(=O)(Cc1ccccc1)Nc1ccc(Oc2ncccc2-c2ccnc(NC34CNCC3C4)n2)c(F)c1F", "note": "(single isomer, unassigned) [Compound 185, N-(4-((3-(2-(3-Azabicyclo[3.1.0]hexan-5-ylamino)pyrimidin-4-yl)-2-pyridyl)oxy)-2,3-difluoro-phenyl)-1-phenyl-methanesulfonamide]", "IC50": 9.4}
{"smiles": "O=S(=O)(CC1CC(F)(F)C1)Nc1ccc(Oc2ncccc2-c2ccnc(N[C@H]3CCCNC3)n2)c(F)c1F", "note": "[Compound 232, (S)-N-(2,3-difluoro-4-(3-(2-(piperidin-3-ylamino)pyrimidin-4-yl)pyridin-2-yloxy)phenyl)-1-(3,3-difluorocyclobutyl)methanesulfonamide]", "IC50": 15}
{"smiles": "O=S(=O)(Cc1ccc(F)cc1Cl)Nc1c(F)cc(Oc2ncccc2-c2ccnc(N[C@@H]3CNC[C@@H](F)C3)n2)c(F)c1F", "note": "[Compound 365, 1-(2-Chloro-4-fluoro-phenyl)-N-[2,3,6-trifluoro-4-[[3-[2-[[(3S,5S)-5-fluoro-3-piperidyl]amino]pyrimidin-4-yl]-2-pyridyl]oxy]phenyl]methanesulfonamide]", "IC50": 0.7}
{"smiles": "CC(F)C1CNCC(Nc2nccc(-c3cccnc3Oc3cc(F)c(NS(=O)(=O)Cc4ccccc4)c(F)c3F)n2)C1", "note": "(single isomer, unassigned) [Compound 346, 1-Phenyl-N-(2,3,6-trifluoro-4-((3-(2-((5-(1-fluoroethyl)piperidin-3-yl)amino)pyrimidin-4-yl)pyridin-2-yl)oxy)phenyl)methanesulfonamide]", "IC50": 72}
{"smiles": "O=S(=O)(Cc1ccccc1)Nc1ccc(Oc2ncccc2-c2ccnc(N[C@H]3CCCNC3)n2)c(F)c1", "note": "[Compound 159, (S)-N-(3-fluoro-4-((3-(2-(piperidin-3-ylamino)pyrimidin-4-yl)pyridin-2-yl)oxy)phenyl)-1-phenylmethanesulfonamide]", "IC50": 11}
{"smiles": "O=S(=O)(Cc1ccccc1F)Nc1ccc(Oc2ncccc2-c2ccnc(N[C@H]3CCCNC3)n2)c(F)c1F", "note": "[Compound 146, (S)-N-(2,3-difluoro-4-((3-(2-(piperidin-3-ylamino)pyrimidin-4-yl)pyridin-2-yl)oxy)phenyl)-1-(2-fluorophenyl)methanesulfonamide hydrochloride]", "IC50": 4}
{"smiles": "CC(C)(C)CCS(=O)(=O)Nc1ccc(Oc2ncccc2-c2ccnc(N[C@H]3CCCNC3)n2)c(F)c1F", "note": "[Compound 226, (S)-N-(2,3-difluoro-4-((3-(2-(piperidin-3-ylamino)pyrimidin-4-yl)pyridin-2-yl)oxy)phenyl)-3,3-dimethylbutane-1-sulfonamide]", "IC50": 18}
{"smiles": "CC(c1ccc(C#N)cc1)S(=O)(=O)Nc1ccc(Oc2ncccc2-c2ccnc(N[C@H]3CCCNC3)n2)c(F)c1F", "note": "(stereo partly drawn) [Compound 379, 1-(4-Cyanophenyl)-N-(2,3-difluoro-4-((3-(2-(((S)-piperidin-3-yl)amino)pyrimidin-4-yl)pyridin-2-yl)oxy)phenyl)ethane-1-sulfonamide]", "IC50": 0.3}
